Source: patent US4229438A, “Nonapeptides” (Takeda Chemical Industries, Ltd., priority 1978, dated 1980)
Residues, ends and D or L forms follow the SMILES beside them.

Test system: spleen cells of C3H/He mouse (23-26% albumin layer interface fraction)
Test: Determination of theta antigen induction activity (procedure analogous to Komuro et al)
Type: cell-based
Settings: C3H/He mouse spleen cell fraction in RPMI-1640, incubated with peptide at 37° C. for 2 hours; lysis with anti(theta) serum and guinea-pig complement
Experimental: The theta antigen induction activity of the nonapeptide (I) is assayed by a procedure analogous to the procedure described in the article of Komuro et al [The Lancet, i, 740-743 (1973)]. The spleen is enucleated from a C3H/He mouse, 2-3 months old, and minced in a tissue culture fluid (RPMI-1640). The resulting spleen cell suspension is fractionated by discontinuous density gradient centrifugation using 10 to 35% bovine serum albumin. The cells migrating to the 23-26% albumin layer interface are collected and resuspended in RPMI-1640. To this cell suspension is added the peptide, the activity of which is to be determined, at a varying concentration and the mixture is incubated at 37° C. for 2 hours. If the peptide added be active, fresh theta antigen will appear on the cell surface. Therefore, the count of such cells is taken by lysing with an outbred mouse anti(theta) serum and guinea-pig complement. The theta-antigen induction activity is computed by means of the following equation. Theta-antigen induction activity(%)=(A-B/A)×100 where A is the count of theta antigen-negative cells in the absence of the test peptide and B is the count of theta antigen-negative cells when the test peptide has been added.

With `C[C@H](NC(=O)[C@@H]1CCC(=O)N1)C(=O)N[C@@H](CCCCN)C(=O)N[C@@H](CO)C(=O)N[C@@H](CCC(N)=O)C(=O)NCC(=O)N[C@H](C)C(=O)N[C@@H](CO)C(=O)N[C@@H](CC(N)=O)C(=O)O` [Example 3, pGlu-Ala-Lys-Ser-Gln-Gly-(D)-Ala-Ser-Asn-OH] (HELM PEPTIDE1{[Glp].A.K.S.Q.G.[dA].S.N}$$$$V2.0) the “The concentration required for showing at least 10% theta antigen induction activity” value was 1 to 10 ng/mL.

With `C[C@H](NC(=O)[C@@H]1CCC(=O)N1)C(=O)N[C@@H](CCCCN)C(=O)N[C@@H](CO)C(=O)N[C@@H](CCC(N)=O)C(=O)N[C@H](C)C(=O)NCC(=O)N[C@@H](CO)C(=O)N[C@@H](CC(N)=O)C(=O)O` [Example 4, pGlu-Ala-Lys-Ser-Gln-(D)-Ala-Gly-Ser-Asn-OH] (HELM PEPTIDE1{[Glp].A.K.S.Q.[dA].G.S.N}$$$$V2.0) the “The concentration required for showing at least 10% theta antigen induction activity” value was 0.1 to 1 ng/mL.

In the case of `C[C@@H](NC(=O)[C@@H]1CCC(=O)N1)C(=O)N[C@@H](CCCCN)C(=O)N[C@@H](CO)C(=O)N[C@@H](CCC(N)=O)C(=O)NCC(=O)NCC(=O)N[C@@H](CO)C(=O)N[C@@H](CC(N)=O)C(=O)O` [Example 1, pGlu-(D)-Ala-Lys-Ser-Gln-Gly-Gly-Ser-Asn-OH] (HELM PEPTIDE1{[Glp].[dA].K.S.Q.G.G.S.N}$$$$V2.0), the “The concentration required for showing at least 10% theta antigen induction activity” value is reported as 1 to 10 ng/mL.
